The results in this text go back to US5248689A, “Substituted N-(imidazolyl)alkyl alanine derivatives” (SmithKline Beecham Corporation, priority 1990, dated 1993).

Test [1] relates to pressor response to angiotensin II. The test is described as follows: inhibition of pressor response to angiotensin II in conscious rats. Type of test: in vivo. To be noted: Rattus norvegicus, intravenous angiotensin II 250 mg/kg [sic], read-out: IC50 (dose needed to produce 50% inhibition of the control response to angiotensin II). As to the method:
(§1) Angiotensin II antagonist activity of the compounds of Formulas (I) is assessed by in vitro and in vivo methods. In vitro antagonist activity is determined by the ability of the compounds to compete with ^125 I-angiotensin II for binding to vascular angiotensin II receptors and by their ability to antagonize the contractile response to angiotensin II in the isolated rabbit aorta. In vivo activity is evaluated by the efficacy of the compounds to inhibit the pressor response to exogenous angiotensin II in conscious rats and to lower blood pressure in a rat model of renin dependent hypertension.
Rats are prepared with indwelling femoral arterial and venous catheters and a stomach tube (Gellai et al., KidneyInt. 15:419, 1979). Two to three days following surgery the rats are placed in a restrainer and blood pressure is continuously monitored from the arterial catheter with a pressure transducer and recorded on a polygraph. The change in mean arterial pressure in response to intravenous injections of […] angiotensin II is compared at various time points prior to and following the administration of the compounds intravenously or orally at doses of 3 to 300 mg/kg. The dose of compound needed to produce 50% inhibition of the control response to angiotensin II IC50) is used to estimate the potency of the compounds.

The subject of test [2] is conscious rats made renin dependent hypertensive by ligation of the left renal artery. The test is described as follows: antihypertensive activity in conscious renin dependent hypertensive (renal artery ligated) rats. The class given is in vivo. The settings on record: Rattus norvegicus, 7-8 days after ligation, read-out: IC30 (dose needed to reduce mean arterial pressure by 30 mm Hg). As to the method:
as §1
The antihypertensive activity of the compounds is measured by their ability to reduce mean arterial pressure in conscious rats made renin dependent hypertensive by ligation of the left renal artery (Cangiano et al., J. Pharmacol. Exp. Ther. 208:310, 1979). Renal artery ligated rats are prepared with indwelling catheters as described above. Seven to eight days following renal artery ligation, the time at which plasma renin levels are highest, the conscious rats are placed in restrainers and mean arterial pressure is continuously recorded prior to and following the administration of the compounds intravenously or orally. The dose of compound needed to reduce mean arterial pressure by 30 mm Hg (IC30) is used as an estimate of potency. […]

Each structure is given as a SMILES string. Read-outs that look alike come from different tables or passages of the source.

Regarding `CCCCc1ncc(CN[C@@](C)(Cc2cccs2)C(=O)O)n1Cc1ccccc1Cl` [Example 6, N-[{1-[(2-chlorophenyl)methyl]-2-n-butyl-1H-imidazol-5-yl}methyl]-α-methyl-β-(2-thienyl)alanine], the ED50 in test [1] (i.v.) was 11 mg/kg; in test [1] (po, orally), 45 mg/kg. In addition, the ED (30 mm Hg) in test [2] (iv) came to 15 mg/kg; in test [2] (po, orally) it was 70 mg/kg.
